Experimental data: US8742114B2, “Nucleic acid detections and methods of their use” (priority 2011, dated 2014)
One block for each compound: values may come before it.

Key:
[1] = tested on: dsDNA, ssDNA, and RNA; experiment: Selectivity test on dsDNA, ssDNA, and RNA in TE buffer; conditions: 2 μM dye, 10 μg/mL nucleic acid, 1×TE buffer, ex 480 nm (36, 40) or 620 nm (49), FIG. 2
[2] = tested on: live and fixed HeLa cells; experiment: Cellular nucleic acid staining; type: cell-based; conditions: 1 μM in PBS buffer, 10 min, fluorescence microscopy, FIG. 5
Protocol: Compound 38, compound 42, and compound 61 were prepared in 1 mM stock solution in water, respectively. Each compound at 1 μM concentration in PBS buffer was incubated with live and fixed HeLa cells in 96-well plate for 10 min, respectively. The fluorescence imaging of cells was taken on a fluorescence microscopy with a 488 nm excitation laser and a 520±15 nm emission filter, as shown in FIG. 5.

[3] = tested on: DNA or RNA; experiment: Binding selectivity on DNA or RNA (effect of R3); conditions: R3 methyl 4-benzoate versus R3 H
[4] = tested on: nucleic acids; conditions: background; cited from earlier work
[5] = background; cited from earlier work

Structure (SMILES): COCCOCCOCCOCCN1C(N(CCC[N+](C)(C)C)CCC[N+](C)(C)C)=C/C(=C/c2sc3ccccc3[n+]2C)c2ccccc21 [Compound 40]
selectivity among dsDNA, ssDNA and RNA (fluorescence emission spectra) [1]: good selectivity for DNA versus RNA

live cell permeability [2]: live cell impermeant
Structure (SMILES): CC[N+](C)(CC)Cc1ccc(C2=C/C(=C/c3sc4ccccc4[n+]3C)c3ccccc3N2CCOCCOCCOCCOC)cc1 [Compound 42]

binding selectivity on DNA or RNA [3]: high selectivity for DNA over RNA
Structure (SMILES): CN(C)CCCN(CCCN(C)C)C1=C/C(=C\C=C\c2sc3ccc(S(=O)(=O)[O-])cc3[n+]2C)c2ccccc2N1C [Compound 53]

live cell permeability [2]: live cell impermeant
Structure (SMILES): CN(C)CCCN(CCCN(C)C)C1=C/C(=C\c2sc3ccccc3[n+]2C)c2ccccc2N1CCCCCC(=O)NCCOCCO.[I-] [Compound 61]

Structure (SMILES): CCCN1C=C/C(=C\c2sc3ccccc3[n+]2C)c2ccccc21 [SYBR Safe]
detection sensitivity on nucleic acids [4]: low sensitive than desired

Structure (SMILES): CN1C(=Cc2cc[n+](C)c3ccccc23)Sc2ccccc21 [Thiazole Orange]
detection sensitivity on nucleic acids [4]: low detection sensitivity

Structure (SMILES): CC[n+]1c(-c2ccccc2)c2cc(N)ccc2c2ccc(N)cc21 [ethidium bromide, Ethidium bromide]
mutagenicity [5]: mutagenic
